SMILES strings stand for the structures. ≈ marks a conversion by molar mass, not a printed value.

Holding throughout (assay): Minimum Inhibitory Concentration (MIC), agar dilution in Mueller Hinton Agar
Holding throughout (type): cell-based

For assay [1], the system named is Streptococcus Pneumoniae. The settings on record: 20 h, culture number 41. On the procedure: (§1) The compounds of this invention and their respective pharmaceutically acceptable salts have antibiotic activity against a variety of gram-negative bacteria including Escherichia coli, Klebsiella pneumoniae, and Pseudomonas aeruginosa. The compounds are useful for treating bacterial infections in animals, including and most preferably humans. Compounds of the invention are tested for in vitro antimicrobial activity using standard testing procedures such as the determination of minimum inhibitory concentration (MIC) by methods described in "Methods for Dilution Antimicrobial Susceptibility Tests for Bacteria That Grow Aerobically" (M7-A) Published December 1985 by the National Committee for Clinical Laboratory Standards, 771 East Lancaster Avenue, Villanova, Pa. 19084. Briefly, MIC values are determined in unsupplemented Mueller Hinton Agar (MHA). The compounds tested are diluted serially into molten MHA at 47° C. The agar is poured into petri dishes and allowed to harden. The various bacteria used for testing are grown overnight on MHA at 35° C. and transferred to Tryptiease Soy Broth (TSB) until a turbidity of 0.5 McFarland standard is obtained. The bacteria are diluted one to twenty in TSB and inoculated on the plates (1 μl using a Steers replicator).

In assay [2] the test system is Pseudomonas Aeruginosa. The settings on record: 20 h. On the procedure: as §1
Assay [3] deals with Staphylococcus Aureus. Conditions: 20 h. On the procedure:
as §1

Assay [4] deals with Proteus Vulgaris. The settings on record: 20 h, culture number 9679. As to the method: as §1
The subject of assay [5] is Enterobacter Cloacae. The settings on record: 20 h. As to the method:
as §1

Assay [6] deals with Streptococcus Faecalis. The settings on record: Enterococcus faecalis, 20 h; culture number 694. As to the method: as §1
In assay [7] the test system is Citrobacter Freundli. Conditions: 20 h, culture number 3507. As to the method:
as §1

The test system of assay [8] is Escherichia Coli. The settings on record: 20 h. On the procedure: as §1
Assay [9] has as its system Klebsiella Pneumoniae. Conditions: 20 h, culture number 58. On the procedure: as §1
Assay [10] has as its system Streptococcus Pyogenes. Conditions: 20 h, culture number 152. On the procedure: as §1
Assay [11] relates to Klebsiella Oxytoca. The settings on record: 20 h. On the procedure:
as §1

For assay [12], the system named is Serratia Marcescens. The settings on record: 20 h, culture number 6888. As to the method:
as §1

One may read the MIC as the lowest concentration that inhibits growth of the organism. Regarding `CCCCn1cc(O)c(=O)cc1C(=O)NN1CCN(S(=O)(=O)NC(=O)N2C[C@H](NC(=O)/C(=N\OC(C)(C)C(=O)O)c3csc(N)n3)C2=O)C1=O` [E42 (b), Propanoic acid, 2-[[[1-(2-amino-4-thiazolyl)-2-[[1-[[[[3-[[(1-butyl-1,4-dihydro-5-hydroxy-4-oxo-2-pyridinyl)carbonyl]amino]-2-oxo-1-imidazolidinyl]sulfonyl]amino]carbonyl]-2-oxo-3-azetidinyl]amino]-2-oxoethylidene]amino]oxy]-2-methyl-, [S-(Z)]-], the MIC was more than 64 µg/mL in [1]; more than 64 µg/mL in assay [2] (culture number 231); 64 µg/mL (≈ 86.4 µM) in assay [2] (culture number 9191); more than 64 µg/mL in assay [3] (culture number 3665); more than 64 µg/mL in assay [3] (culture number 6685); more than 64 µg/mL in [3] (culture number 9218). For the same compound, the MIC is 0.25 µg/mL (≈ 0.338 µM) in assay [4]; more than 64 µg/mL in assay [5] (culture number 9381); 1 µg/mL (≈ 1.35 µM) in assay [5] (culture number 9382); more than 64 µg/mL in assay [6]; 2 µg/mL (≈ 2.7 µM) in [7]; 0.5 µg/mL (≈ 0.675 µM) in assay [8] (culture number 9379). The MIC in assay [8] (culture number 9380) is 0.25 µg/mL (≈ 0.338 µM); in [8] (culture number 9451), 0.5 µg/mL (≈ 0.675 µM); in assay [9], 0.5 µg/mL (≈ 0.675 µM); in assay [10], 16 µg/mL (≈ 21.6 µM); in [11] (culture number 9383), 4 µg/mL (≈ 5.4 µM); in [11] (culture number 9384), 0.25 µg/mL (≈ 0.338 µM). The compound further yielded an MIC in assay [12] of 1 µg/mL (≈ 1.35 µM).
Turning to `Nc1nc(/C(=N/OCC(=O)O)C(=O)N[C@H]2CN(C(=O)NS(=O)(=O)N3CCN(C(=O)c4cc(=O)c(O)c[nH]4)CC3)C2=O)cs1` [Compound E19, Acetic acid, 2-[[[1-(2-amino-4-thiazolyl)-2-[[1-[[[[4-[(1,4-dihydro-5-hydroxy-4-oxo-2-pyridinyl)carbonyl]-1-piperazinyl]sulfonyl]amino]carbonyl]-2-oxo-3-azetidinyl]amino]-2-oxoethylidene]amino]oxy]-, [S-(Z)]-], the minimum inhibitory concentration (MIC) was more than 128 µg/mL in [1]; 8 µg/mL (≈ 12.5 µM) in assay [2] (culture number 231); 8 µg/mL (≈ 12.5 µM) in assay [2] (culture number 9191); more than 128 µg/mL in [3] (culture number 3665); more than 128 µg/mL in [3] (culture number 6685); more than 128 µg/mL in assay [3] (culture number 9218). In addition, the minimum inhibitory concentration (MIC) in [4] is 4 µg/mL (≈ 6.23 µM); in [5] (culture number 9381), 128 µg/mL (≈ 200 µM); in assay [5] (culture number 9382), 16 µg/mL (≈ 24.9 µM); in [6] it was more than 128 µg/mL; in [7] it was 2 µg/mL (≈ 3.12 µM); in assay [8] (culture number 9379), 0.25 µg/mL (≈ 0.39 µM). For the same compound, the minimum inhibitory concentration (MIC) in assay [8] (culture number 9380) is 0.06 µg/mL (≈ 0.0935 µM); in assay [8] (culture number 9451), 0.125 µg/mL (≈ 0.195 µM); in assay [9], 8 µg/mL (≈ 12.5 µM); in assay [10], 64 µg/mL (≈ 99.8 µM); in [11] (culture number 9383) it was 64 µg/mL (≈ 99.8 µM); in [11] (culture number 9384), 0.5 µg/mL (≈ 0.779 µM). The same compound came in with an MIC in assay [12] of 1 µg/mL (≈ 1.56 µM).
For `CC(C)(O/N=C(\C(=O)N[C@H]1CN(C(=O)NS(=O)(=O)n2nc(-c3cc(=O)c(O)c[nH]3)[nH]c2=O)C1=O)c1csc(N)n1)C(=O)O` [E23 (a), propanoic acid, 2-[[[1-(2-amino-4-thiazolyl)-2-[[1-[[[[3-(1,4-dihydro-5-hydroxy-4-oxo-2-pyridinyl)-2,5-dihydro-5-oxo-1H-1,2,4-triazol-1-yl]sulfonyl]amino]carbonyl]-2-oxo-3-azetidinyl]amino]-2-oxoethylidene]amino]oxy]-2-methyl-, [S-(Z)]-], the MIC in assay [1] is more than 64 µg/mL; in assay [2] (culture number 231), 0.5 µg/mL (≈ 0.781 µM); in assay [2] (culture number 9191), 0.5 µg/mL (≈ 0.781 µM); in assay [3] (culture number 3665) it was more than 64 µg/mL; in assay [3] (culture number 6685) it was more than 64 µg/mL; in [3] (culture number 9218) it was more than 64 µg/mL. Moreover, the MIC in assay [4] is 0.03 µg/mL (≈ 0.0468 µM); in assay [5] (culture number 9381), 4 µg/mL (≈ 6.24 µM); in [5] (culture number 9382), 0.5 µg/mL (≈ 0.781 µM); in assay [6] it was more than 64 µg/mL; in [7] it was 0.03 µg/mL (≈ 0.0468 µM); in [8] (culture number 9379) it was less than 0.008 µg/mL. The MIC is less than 0.008 µg/mL in assay [8] (culture number 9380); less than 0.008 µg/mL in assay [8] (culture number 9451); 0.25 µg/mL (≈ 0.39 µM) in assay [9]; 16 µg/mL (≈ 25 µM) in assay [10]; 0.03 µg/mL (≈ 0.0468 µM) in assay [11] (culture number 9383); 0.03 µg/mL (≈ 0.0468 µM) in [11] (culture number 9384). The minimal inhibitory concentration (MIC) in [12] came to 0.015 µg/mL (≈ 0.0234 µM).
With `Cn1c(-c2cc(=O)c(O)c[nH]2)nn(S(=O)(=O)NC(=O)N2C[C@H](NC(=O)/C(=N\OC(C)(C)C(=O)O)c3csc(N)n3)C2=O)c1=O` [E23 (b)], the MIC was more than 64 µg/mL in [1]; 0.125 µg/mL (≈ 0.191 µM) in [2] (culture number 231); 0.25 µg/mL (≈ 0.382 µM) in [2] (culture number 9191); more than 64 µg/mL in assay [3] (culture number 3665); more than 64 µg/mL in [3] (culture number 6685); more than 64 µg/mL in [3] (culture number 9218). The MIC in assay [4] is 0.03 µg/mL (≈ 0.0458 µM); in assay [5] (culture number 9381), 4 µg/mL (≈ 6.11 µM); in [5] (culture number 9382), 0.5 µg/mL (≈ 0.764 µM); in assay [6] it was more than 64 µg/mL; in assay [7], 0.03 µg/mL (≈ 0.0458 µM); in [8] (culture number 9379) it was less than 0.008 µg/mL. In addition, the MIC in assay [8] (culture number 9380) was less than 0.008 µg/mL; in assay [8] (culture number 9451) it was less than 0.008 µg/mL; in assay [9], 0.25 µg/mL (≈ 0.382 µM); in assay [10] it was 16 µg/mL (≈ 24.4 µM); in [11] (culture number 9383) it was 0.03 µg/mL (≈ 0.0458 µM); in assay [11] (culture number 9384), 0.03 µg/mL (≈ 0.0458 µM). The MIC in [12] worked out at 0.015 µg/mL (≈ 0.0229 µM).

(Values after patent publication US4975538A, “Antibiotic sulfonylaminocarbonyl activated beta-lactams” (The Upjohn Company, priority 1989, dated 1990).)
